Results: patent US9682995B2, “Amino-substituted isothiazoles” (BAYER PHARMA AKTIENGESELLSCHAFT, priority 2013, dated 2017)

Legend:
Assay in all cases: Kinase Profiling (KINOMEscan)
Assay type in all cases: binding
[1] = biological target: 456 kinases (of these 395 non-mutant kinases) (Homo sapiens, UniProt P36896); details: ACVR1B; 10 μM
[2] = biological target: 456 kinases (of these 395 non-mutant kinases) (Homo sapiens, UniProt Q96SB4); details: SRPK1; 10 μM
[3] = biological target: 456 kinases (of these 395 non-mutant kinases) (Homo sapiens, UniProt O14976); details: GAK; 10 μM
Chain of 456 kinases (of these 395 non-mutant kinases) (Homo sapiens, UniProt O14976) (O14976 2-1311 limits assumed, change not shown): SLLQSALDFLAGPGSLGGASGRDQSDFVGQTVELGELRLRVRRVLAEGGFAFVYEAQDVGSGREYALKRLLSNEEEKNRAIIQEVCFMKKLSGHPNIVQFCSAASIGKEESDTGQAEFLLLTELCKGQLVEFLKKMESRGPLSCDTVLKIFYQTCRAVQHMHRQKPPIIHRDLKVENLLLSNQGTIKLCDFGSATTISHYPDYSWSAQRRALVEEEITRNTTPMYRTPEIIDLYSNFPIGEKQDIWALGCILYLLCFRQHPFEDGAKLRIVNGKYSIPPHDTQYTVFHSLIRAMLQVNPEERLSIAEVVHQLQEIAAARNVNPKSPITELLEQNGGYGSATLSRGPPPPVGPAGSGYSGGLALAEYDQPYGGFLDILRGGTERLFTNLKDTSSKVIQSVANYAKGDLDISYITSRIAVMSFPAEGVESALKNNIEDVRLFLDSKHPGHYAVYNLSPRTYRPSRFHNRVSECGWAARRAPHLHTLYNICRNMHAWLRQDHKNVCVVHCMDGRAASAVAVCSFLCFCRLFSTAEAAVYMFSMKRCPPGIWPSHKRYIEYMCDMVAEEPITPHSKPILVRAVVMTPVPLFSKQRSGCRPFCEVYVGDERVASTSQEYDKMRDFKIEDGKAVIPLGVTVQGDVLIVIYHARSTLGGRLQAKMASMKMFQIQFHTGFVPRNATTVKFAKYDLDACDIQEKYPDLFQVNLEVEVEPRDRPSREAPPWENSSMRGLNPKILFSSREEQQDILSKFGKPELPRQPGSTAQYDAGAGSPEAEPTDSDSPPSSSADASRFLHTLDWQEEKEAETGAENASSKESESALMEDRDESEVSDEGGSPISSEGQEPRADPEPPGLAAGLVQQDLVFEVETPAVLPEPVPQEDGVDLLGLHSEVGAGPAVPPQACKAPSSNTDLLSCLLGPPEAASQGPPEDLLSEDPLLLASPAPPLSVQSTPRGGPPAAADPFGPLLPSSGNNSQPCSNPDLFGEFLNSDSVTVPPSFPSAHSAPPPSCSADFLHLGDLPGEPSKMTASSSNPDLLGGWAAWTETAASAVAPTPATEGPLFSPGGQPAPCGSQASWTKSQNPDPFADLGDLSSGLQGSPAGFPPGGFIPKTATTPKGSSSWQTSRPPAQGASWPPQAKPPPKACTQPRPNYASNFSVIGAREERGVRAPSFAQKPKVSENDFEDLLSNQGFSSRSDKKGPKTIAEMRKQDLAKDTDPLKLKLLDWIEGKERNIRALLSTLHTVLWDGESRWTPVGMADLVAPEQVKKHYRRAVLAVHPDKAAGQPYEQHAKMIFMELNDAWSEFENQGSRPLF

[4] = biological target: 456 kinases (of these 395 non-mutant kinases) (Homo sapiens, UniProt O14936); details: CASK; 10 μM
[5] = biological target: 456 kinases (of these 395 non-mutant kinases) (Homo sapiens, UniProt P12931); details: SRC; 10 μM
Chain of 456 kinases (of these 395 non-mutant kinases) (Homo sapiens, UniProt P12931) (P12931 2-536 limits assumed, change not shown): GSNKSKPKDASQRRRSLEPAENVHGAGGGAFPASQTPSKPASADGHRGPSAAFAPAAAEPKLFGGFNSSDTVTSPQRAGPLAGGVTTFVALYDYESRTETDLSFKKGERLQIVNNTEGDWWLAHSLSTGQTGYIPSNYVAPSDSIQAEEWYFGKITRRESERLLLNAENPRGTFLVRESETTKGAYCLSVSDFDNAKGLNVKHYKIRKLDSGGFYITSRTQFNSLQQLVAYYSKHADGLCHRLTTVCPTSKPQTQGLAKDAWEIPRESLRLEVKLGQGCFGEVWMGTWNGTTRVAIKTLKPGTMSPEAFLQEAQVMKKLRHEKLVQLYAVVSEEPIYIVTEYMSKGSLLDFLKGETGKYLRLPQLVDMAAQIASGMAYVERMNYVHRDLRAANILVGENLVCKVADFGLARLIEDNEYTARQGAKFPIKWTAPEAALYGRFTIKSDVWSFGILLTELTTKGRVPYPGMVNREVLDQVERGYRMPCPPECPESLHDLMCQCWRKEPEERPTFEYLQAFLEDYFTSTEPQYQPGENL

[6] = biological target: 456 kinases (of these 395 non-mutant kinases) (Homo sapiens, UniProt O00329); details: PIK3CD; 10 μM
[7] = biological target: 456 kinases (of these 395 non-mutant kinases) (Homo sapiens, UniProt P78356); details: PIP5K2B; 10 μM
Chain of 456 kinases (of these 395 non-mutant kinases) (Homo sapiens, UniProt P78356) (P78356 2-416 limits assumed, change not shown): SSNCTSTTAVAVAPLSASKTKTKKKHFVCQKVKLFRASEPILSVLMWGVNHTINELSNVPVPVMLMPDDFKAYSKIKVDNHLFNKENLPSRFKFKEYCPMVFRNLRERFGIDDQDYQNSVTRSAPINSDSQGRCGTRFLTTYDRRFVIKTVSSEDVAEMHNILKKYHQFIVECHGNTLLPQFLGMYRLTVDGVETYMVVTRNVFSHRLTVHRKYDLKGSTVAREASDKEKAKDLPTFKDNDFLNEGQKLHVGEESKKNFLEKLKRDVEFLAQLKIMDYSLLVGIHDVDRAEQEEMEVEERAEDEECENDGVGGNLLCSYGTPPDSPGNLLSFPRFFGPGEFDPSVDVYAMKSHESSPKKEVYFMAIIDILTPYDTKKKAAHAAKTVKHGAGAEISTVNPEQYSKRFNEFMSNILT

[8] = biological target: 456 kinases (of these 395 non-mutant kinases) (Homo sapiens, UniProt Q08345); details: DDR1; 10 μM
[9] = biological target: 456 kinases (of these 395 non-mutant kinases) (Homo sapiens, UniProt Q8WTQ7); details: GRK7; 10 μM
[10] = biological target: 456 kinases (of these 395 non-mutant kinases) (Homo sapiens, UniProt Q9UPE1); details: SRPK3; 10 μM
[11] = biological target: 456 kinases (of these 395 non-mutant kinases) (Homo sapiens, UniProt Q13882); details: BRK; 10 μM
[12] = biological target: 456 kinases (of these 395 non-mutant kinases) (Homo sapiens, UniProt Q15375); details: EPHA7; 10 μM
Chain of 456 kinases (of these 395 non-mutant kinases) (Homo sapiens, UniProt Q15375) (Q15375 28-998 limits assumed, change not shown): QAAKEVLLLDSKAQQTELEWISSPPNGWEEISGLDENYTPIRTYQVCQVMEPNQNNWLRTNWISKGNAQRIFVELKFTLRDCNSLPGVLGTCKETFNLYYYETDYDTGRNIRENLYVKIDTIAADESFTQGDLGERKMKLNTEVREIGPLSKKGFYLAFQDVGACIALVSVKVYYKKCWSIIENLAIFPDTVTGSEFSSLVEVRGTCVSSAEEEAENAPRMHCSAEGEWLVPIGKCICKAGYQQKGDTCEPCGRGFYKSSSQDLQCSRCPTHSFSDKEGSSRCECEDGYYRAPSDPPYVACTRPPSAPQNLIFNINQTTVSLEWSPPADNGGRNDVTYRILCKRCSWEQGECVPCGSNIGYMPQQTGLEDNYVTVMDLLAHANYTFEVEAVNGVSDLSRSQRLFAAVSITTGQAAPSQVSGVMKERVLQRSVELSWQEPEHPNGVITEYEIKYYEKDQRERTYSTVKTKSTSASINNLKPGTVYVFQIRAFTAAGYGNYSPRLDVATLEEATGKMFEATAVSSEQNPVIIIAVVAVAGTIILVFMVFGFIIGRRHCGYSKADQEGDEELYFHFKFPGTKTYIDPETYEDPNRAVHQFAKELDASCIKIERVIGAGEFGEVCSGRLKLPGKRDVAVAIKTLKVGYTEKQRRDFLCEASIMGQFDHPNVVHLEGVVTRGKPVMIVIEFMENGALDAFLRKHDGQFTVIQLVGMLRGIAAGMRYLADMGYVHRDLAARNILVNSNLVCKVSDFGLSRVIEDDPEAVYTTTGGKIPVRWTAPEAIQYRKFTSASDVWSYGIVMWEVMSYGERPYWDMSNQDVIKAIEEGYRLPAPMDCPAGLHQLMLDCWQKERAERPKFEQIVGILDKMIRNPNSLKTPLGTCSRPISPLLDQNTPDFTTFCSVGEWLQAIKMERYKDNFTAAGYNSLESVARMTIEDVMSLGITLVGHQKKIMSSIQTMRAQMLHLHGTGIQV

[13] = biological target: 456 kinases (of these 395 non-mutant kinases) (Homo sapiens, UniProt Q9Y2H9); details: MAST1; 10 μM
[14] = biological target: 456 kinases (of these 395 non-mutant kinases) (Homo sapiens, UniProt P30291); details: WEE1; 10 μM
[15] = biological target: 456 kinases (of these 395 non-mutant kinases) (Homo sapiens, UniProt Q8TD08); details: ERK8; 10 μM
[16] = biological target: 456 kinases (of these 395 non-mutant kinases) (Homo sapiens, UniProt Q96D53); details: ADCK4; 10 μM
[17] = biological target: 456 kinases (of these 395 non-mutant kinases) (Homo sapiens, UniProt Q99640); details: PKMYT1; 10 μM
[18] = biological target: 456 kinases (of these 395 non-mutant kinases) (Homo sapiens, UniProt P10721, T670I/V559D); details: KIT(V559D,T670I); 10 μM
Chain of 456 kinases (of these 395 non-mutant kinases) (Homo sapiens, UniProt P10721, T670I/V559D) (P10721 26-976 V559D/T670I limits assumed): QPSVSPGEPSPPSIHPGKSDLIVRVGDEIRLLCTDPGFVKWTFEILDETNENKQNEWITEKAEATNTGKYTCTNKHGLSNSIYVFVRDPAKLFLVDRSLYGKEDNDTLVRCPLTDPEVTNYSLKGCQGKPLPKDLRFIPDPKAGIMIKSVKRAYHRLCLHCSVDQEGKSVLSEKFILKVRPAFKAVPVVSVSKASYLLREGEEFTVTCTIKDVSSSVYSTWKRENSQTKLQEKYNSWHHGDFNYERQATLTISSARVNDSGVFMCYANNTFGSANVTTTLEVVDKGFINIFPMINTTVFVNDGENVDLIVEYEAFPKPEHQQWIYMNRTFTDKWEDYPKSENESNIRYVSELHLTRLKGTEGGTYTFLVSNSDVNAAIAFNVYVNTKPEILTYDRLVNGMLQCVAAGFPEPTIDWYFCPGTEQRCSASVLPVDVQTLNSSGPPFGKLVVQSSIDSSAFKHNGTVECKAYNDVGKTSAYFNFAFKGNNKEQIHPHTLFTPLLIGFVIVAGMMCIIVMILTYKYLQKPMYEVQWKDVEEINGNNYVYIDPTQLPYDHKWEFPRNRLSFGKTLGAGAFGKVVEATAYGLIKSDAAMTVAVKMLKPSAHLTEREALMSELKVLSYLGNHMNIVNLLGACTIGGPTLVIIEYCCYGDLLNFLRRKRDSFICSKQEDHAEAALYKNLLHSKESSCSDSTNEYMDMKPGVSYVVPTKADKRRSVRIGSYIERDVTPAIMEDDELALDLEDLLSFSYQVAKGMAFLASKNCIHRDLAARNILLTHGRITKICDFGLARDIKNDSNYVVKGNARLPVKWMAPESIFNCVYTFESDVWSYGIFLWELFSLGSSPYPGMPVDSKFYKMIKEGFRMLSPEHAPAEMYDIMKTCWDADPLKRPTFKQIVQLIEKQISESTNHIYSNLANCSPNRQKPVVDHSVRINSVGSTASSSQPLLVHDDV

[19] = biological target: 456 kinases (of these 395 non-mutant kinases) (Homo sapiens, UniProt P50750); details: CDK9; 10 μM
[20] = biological target: 456 kinases (of these 395 non-mutant kinases) (Homo sapiens, UniProt Q15831); details: LKB1; 10 μM
[21] = biological target: 456 kinases (of these 395 non-mutant kinases) (Homo sapiens, UniProt Q00537); details: PCTK2; 10 μM
[22] = biological target: 456 kinases (of these 395 non-mutant kinases) (Homo sapiens, UniProt P46734); details: MEK3; 10 μM
[23] = biological target: 456 kinases (of these 395 non-mutant kinases) (Homo sapiens, UniProt Q14164); details: IKK-epsilon; 10 μM
[24] = biological target: 456 kinases (of these 395 non-mutant kinases) (Homo sapiens, UniProt P22607, G697C); details: FGFR3(G697C); 10 μM
[25] = biological target: 456 kinases (of these 395 non-mutant kinases) (Homo sapiens, UniProt Q12852); details: DLK; 10 μM
[26] = biological target: 456 kinases (of these 395 non-mutant kinases) (Homo sapiens, UniProt Q9NSY1); details: BIKE; 10 μM
[27] = biological target: 456 kinases (of these 395 non-mutant kinases) (Homo sapiens, UniProt P42336, Q546K); details: PIK3CA(Q546K); 10 μM
[28] = biological target: 456 kinases (of these 395 non-mutant kinases) (Homo sapiens, UniProt Q8WXR4); details: MYO3B; 10 μM
[29] = biological target: 456 kinases (of these 395 non-mutant kinases) (Homo sapiens, UniProt Q9C098); details: DCAMKL3; 10 μM
[30] = biological target: 456 kinases (of these 395 non-mutant kinases) (Homo sapiens, UniProt P42336, E545K); details: PIK3CA(E545K); 10 μM
[31] = biological target: 456 kinases (of these 395 non-mutant kinases) (Homo sapiens, UniProt P21802); details: FGFR2; 10 μM
[32] = biological target: 456 kinases (of these 395 non-mutant kinases) (Homo sapiens, UniProt Q14680); details: MELK; 10 μM

Chain of 456 kinases (of these 395 non-mutant kinases) (Homo sapiens, UniProt P36896) (P36896 24-505 limits assumed, change not shown): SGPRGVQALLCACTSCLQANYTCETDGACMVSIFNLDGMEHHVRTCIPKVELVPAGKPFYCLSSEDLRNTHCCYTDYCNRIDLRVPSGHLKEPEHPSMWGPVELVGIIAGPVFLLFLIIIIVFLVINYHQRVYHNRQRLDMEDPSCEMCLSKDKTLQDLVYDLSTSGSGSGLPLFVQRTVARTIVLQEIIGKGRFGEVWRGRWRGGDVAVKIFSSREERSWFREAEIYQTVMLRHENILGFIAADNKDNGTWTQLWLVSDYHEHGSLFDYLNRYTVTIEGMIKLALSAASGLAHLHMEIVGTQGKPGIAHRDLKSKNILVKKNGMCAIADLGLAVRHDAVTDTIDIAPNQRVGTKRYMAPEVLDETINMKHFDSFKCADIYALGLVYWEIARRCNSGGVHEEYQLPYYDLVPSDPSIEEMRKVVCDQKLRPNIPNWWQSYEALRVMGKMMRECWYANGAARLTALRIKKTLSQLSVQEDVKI

## CCc1ccccc1NC(=O)c1c(C)nsc1Nc1cnc2cc(F)ccc2n1 [Example 20, N-(2-Ethylphenyl)-5-[(6-fluoroquinoxalin-2-yl)amino]-3-methyl-1,2-thiazole-4-carboxamide]
[1]
  % Ctrl @ 10 μM: 100 % Ctrl
[2]
  % Ctrl @ 10 μM: 86 % Ctrl
[3]
  % Ctrl @ 10 μM: 96 % Ctrl
[4]
  % Ctrl @ 10 μM: 87 % Ctrl
[5]
  % Ctrl @ 10 μM: 100 % Ctrl
[6]
  % Ctrl @ 10 μM: 100 % Ctrl
[7]
  % Ctrl @ 10 μM: 86 % Ctrl
[8]
  % Ctrl @ 10 μM: 77 % Ctrl
[9]
  % Ctrl @ 10 μM: 94 % Ctrl
[10]
  % Ctrl @ 10 μM: 87 % Ctrl
[11]
  % Ctrl @ 10 μM: 55 % Ctrl
[12]
  % Ctrl @ 10 μM: 100 % Ctrl
[13]
  % Ctrl @ 10 μM: 67 % Ctrl
[14]
  % Ctrl @ 10 μM: 100 % Ctrl
[15]
  % Ctrl @ 10 μM: 82 % Ctrl
[16]
  % Ctrl @ 10 μM: 100 % Ctrl
[17]
  % Ctrl @ 10 μM: 100 % Ctrl
[18]
  % Ctrl @ 10 μM: 100 % Ctrl
[19]
  % Ctrl @ 10 μM: 100 % Ctrl
[20]
  % Ctrl @ 10 μM: 100 % Ctrl
[21]
  % Ctrl @ 10 μM: 100 % Ctrl
[22]
  % Ctrl @ 10 μM: 100 % Ctrl
[23]
  % Ctrl @ 10 μM: 100 % Ctrl
[24]
  % Ctrl @ 10 μM: 87 % Ctrl
[25]
  % Ctrl @ 10 μM: 94 % Ctrl
[26]
  % Ctrl @ 10 μM: 62 % Ctrl
[27]
  % Ctrl @ 10 μM: 66 % Ctrl
[28]
  % Ctrl @ 10 μM: 100 % Ctrl
[29]
  % Ctrl @ 10 μM: 100 % Ctrl
[30]
  % Ctrl @ 10 μM: 84 % Ctrl
[31]
  % Ctrl @ 10 μM: 80 % Ctrl
[32]
  % Ctrl @ 10 μM: 100 % Ctrl
